# Test results published in patent publication US20250276038A1, “HISTATIN COMBINATIONS AND METHODS FOR TREATING OR INHIBITING CELL LOSS” (VISUS THERAPEUTICS, INC., priority 2021, published 2025).
# Where no end group is shown, it is not given here.
# What was measured:
# corneal nerves = test: Corneal nerve regeneration after surgical anterior keratectomy (Tuj1 wholemount immunohistochemistry); format: in vivo, New Zealand White rabbits; settings: Day 28; 35 μl topical TID, 80 μM histatin-1 (+100 μM peptide 6); mean±SD
# Protocol: Twelve New Zealand White rabbits, approximately 4-6 months old and weighing 2-3 kg were divided into 3 groups of 4 animals and dosed topically three times per day (TID) for 28 days with either 35 μl phosphate buffered saline (PBS), 35 μl 80 μM histatin-1 or 35 μl of 80 μM histatin-1+100 μM peptide 6 following a unilateral surgical keratectomy procedure.
# Animals were administered buprenorphine (0.01-0.05 mg/kg, SC) for pain control just prior to the procedure. A second dose of buprenorphine (0.01-0.05 mg/kg, SC) was administered in the evening, and then administered on an as needed basis. Animals were induced for surgery with a ketamine/xylazine cocktail (50 mg/kg ketamine and 10 mg/kg xylazine IM); anesthesia was maintained with isoflurane delivered in oxygen through a mask as needed. Following induction of anesthesia, 5% betadine solution, on autoclaved sterile gauze, was used to clean the periocular (eyelids) area of the surgical eye. […]
# While corneas were incubating in their final wash, slides with imaging spacers were prepared. A 0.36, 0.6 mm or combination of the two adhesive imaging spacers (Grace Biolabs cat #SA-S-3L; custom cut to 22×40 mm rectangle with an oblong window cut out) was adhered to a glass slide; spacer thickness was determined by corneal thickness measured on the day of necropsy for treated eyes; control corneas utilized a 0.36 mm spacer. […]
# [1] = tested on: endothelial cells in human non-surgical cornea buttons; test: Corneal button preservation under stressed storage conditions (trypan blue staining); format: cell-based; settings: 1 μM in standard cornea storage media
# Protocol: The effect of 1 μM histatin-1 formulated in Life4° C.™ or Optisol™ Corneal Storage Medium was assessed on the preservation of endothelial cells in 9 pairs of human non-surgical cornea buttons stored under stressed conditions. The tissues were individually stored in 20 mL Bausch & Lomb™ Cornea Tissue Viewing Chambers at room temperature (24±2° C.) for 6 to 14 days, preceded by storage at 4° C. for 3 days. All doners were White/Caucasian origin. The median age was 64 years and ranged from 14 to 73. The amount of time from the time of death to the preservation of the corneas ranged from 4 hours 15 mins to 20 hours 48 mins. Endothelial cell counts at the time of tissue harvest was 2222±240 cells/mm^2. Histatin-1 was added every other day to the right eye (OD) in a volume of 200 μL in an amount sufficient to maintain a concentration of 1 μM. Left eyes (OS) were given an equal volume of PBS. Endothelial cell viability was assessed by trypan blue staining as non-viable area expressed as a percentage of 80% of the central cornea. Briefly, cornea buttons were transferred from storage chambers to viewing wells (Barron Punch Cutting Block), endothelium side up, and 0.06% trypan blue in a volume sufficient to cover the endothelial layer limbus to limbus was applied and left for 90 secs, and then rinsed twice with PBS. […]
# stromal keratocytes = test: Loss of stromal keratocytes after surgical keratectomy (in vivo confocal corneal tomography, keratocyte counts); set-up: species or system New Zealand White rabbits; settings: for Percent keratocyte reduction from baseline: 35 μl topical TID, 80 μM histatin-1 (+100 μM peptide 6 in combination), mean±SD
# Protocol: Twenty-four New Zealand White rabbits, approximately 4-6 months old and weighing 2-3 kg were divided into 3 groups of 8 animals and dosed topically three times per day (TID) for 28 days with either 35 μl Phosphate Buffered Saline (PBS), 35 μl 80 μM histatin-1 (Hst-1), or 35 μl 80 μM histatin-1+100 μM peptide 6 (P6) combination following unilateral surgical keratectomy procedure.
# (§1) Animals were administered buprenorphine (0.01-0.05 mg/kg, SC) for pain control just prior to the procedure. A second dose of buprenorphine (0.01-0.05 mg/kg, SC) was administered in the evening, and then administered on an as needed basis. Animals was induced for surgery with a ketamine/xylazine cocktail (50 mg/kg ketamine and 10 mg/kg xylazine IM); anesthesia was maintained with isoflurane delivered in oxygen through a mask as needed. Following induction of anesthesia, 5% betadine solution, on autoclaved sterile gauze, was used to clean the periocular (eyelids) area of the surgical eye. Betadine was then used to irrigate the ocular surface and conjunctival cul-de-sac, which was then thoroughly irrigated with sterile eyewash. One drop each of 0.5% proparacaine HCl and 10% phenylephrine HCl, was then applied to the ocular surface for ocular anesthesia and mydriasis, respectively. The rabbit was positioned under an operating microscope and an eyelid speculum was affixed. An adjustable, 8 mm corneal vacuum trephine (Moria Surgical, Antony, France) was used to create a central corneal defect of approximately 10-25% stromal depth (approximately 100 μm). The trephined section of the cornea was removed, and the wound left open. Immediately following surgery, a single dose of topical antibiotic (Neomycin Polymyxin B Sulfates Gramicidin ophthalmic solution) was applied.
# (§2) The corneas of anesthetized animals were imaged with a Heidelberg Retinal Tomograph fitted with a Rostock Corneal Module (HRT III RCM). This compact ophthalmic device uses confocal scanning laser microscopy to provide high-resolution en-face images of cornea cells and structures, including keratocytes subpopulations and the corneal sub-basal nerve plexus. Central cornea confocal scans from the epithelium to the endothelium were done and optical stacks of 400 μm×400 μm and 2 μm thick sections were generated and electronically stored for analysis.
# A sampling region of the stack of optical scans was selected that corresponded to approximately 150 μm above the endothelium. This was done by counting 75 images up from the endothelium and selecting 5 adjacent images to serve as replicates. Keratocytes presented as reflective distinct irregular shaped objects. […] An unpaired Student's T test was used to compare the histatin-1 and the histatin-1+peptide 6 groups; p<0.05 was considered statistically significant.
# [2] = tested on: corneal endothelial cells; test: Corneal endothelial cell density after surgical anterior keratectomy (corneal tomography); format: in vivo, New Zealand White rabbits; settings: 35 μl 80 μM topical TID; for Percent endothelial cell density reduction from baseline: mean±SD
# Protocol: Sixteen New Zealand White rabbits, approximately 4-6 months old and weighing 2-3 kg were divided into 2 groups of 8 animals and dosed topically three times per day (TID) for 28 days with either 35 μl phosphate buffered saline (PBS) or 35 μl 80 μM histatin-1 following unilateral surgical keratectomy procedure.
# as §1, with “Animals were” for “Animals was”, “The rabbits were” for “The rabbit was”
# as §2, with “including corneal sub-basal nerve plexus,” for “including”, “endothelial cell layer.” for “sub-basal nerve plexus.”, “400×400” for “400 μm×400”
# The optical slice with the endothelium layer having the best resolution and largest coverage was selected. Of the 16 animals in the study, only 14 animals had scans with usable endothelial cell layers at 1 or more time points, and a maximum of only 4 usable scans at any single time point. The HRT III cell counting software was used to adjust image contrast and brightness to enhance manual cell counting within a selected region of interest (ROI). ROIs were >0.005 mm^2. Number of cells within a ROI ranged from 118-287. Partial cells (>½) at the edges of the ROI were counted only on 2 sides at right angles. The software computed endothelial cell density as cells/mm^2 based on manual counts in the selected ROI. Data are presented as mean±standard deviation cells/mm^2. An unpaired Student's T test was used to compare the PBS and histatin-1 groups at each follow-up time point; p<0.05 was considered statistically significant.
sequence,measurement,setting,value
DSHEKRHHGYRRKFHEKHHSHREFPFYGDYGSNYLYDN [histatin-1],Area of nerve regeneration,corneal nerves,26.1±7 mm^2
same,Area of nerve regeneration as percent of initial 8 mm lesion area (50.3 mm^2),corneal nerves,51.9±14%
same,Reduction of stained area in the endothelial area versus PBS,[1],45%
same,Complete recovery of keratocytes by Day,stromal keratocytes; 35 μl topical TID after keratectomy,≤ 28 days
same,Percent keratocyte reduction from baseline,stromal keratocytes; Day 7,40.2±3.3%
same,Percent keratocyte reduction from baseline,stromal keratocytes; Day 10,37.5±2.4%
same,Percent keratocyte reduction from baseline,stromal keratocytes; Day 14,32.7±15.3%
same,Percent keratocyte reduction from baseline,stromal keratocytes; Day 21,26.5±6.0%
same,Percent keratocyte reduction from baseline,stromal keratocytes; Day 28,2.7±13%
same,Recovery and apparent normalization of endothelial cell density starting by Day,[2],≤ 10 days
same,Percent endothelial cell density reduction from baseline,[2]; Day 7,15.1±2.8%
same,Percent endothelial cell density reduction from baseline,[2]; Day 10,1.1±9.1%
same,Percent endothelial cell density reduction from baseline,[2]; Day 14,−0.2±5.9%
same,Percent endothelial cell density reduction from baseline,[2]; Day 21,4.5±7.8%
same,Percent endothelial cell density reduction from baseline,[2]; Day 28,7.4±2.8%
